From patent US20070191398A1, “Fungicidal mixtures” (priority 2004, published 2007)

Test system: Plasmopara viticola
Assay: persistency against peronospora of grapevines caused by Plasmopara viticola, 7-day protective application
Type: in vivo, Plasmopara viticola on potted vines
Settings: individual active compound, 7-day protective application on grapevine leaves
Experimental: The active compounds, separately or jointly, were prepared as a stock solution comprising 0.25% by weight of active compound in acetone or DMSO. 1% by weight of the emulsifier Uniperol® EL (wetting agent having emulsifying and dispersant action based on ethoxylated alkylphenols) was added to this solution, and the mixture was diluted with water to the desired concentration.
Use example—persistency against peronospora of grapevines caused by Plasmopara viticola, 7-day protective application Leaves of potted vines were sprayed to runoff point with an aqueous suspension having the concentration of active compound stated below. 7 days later, the undersides of the leaves were inoculated with an aqueous sporangia suspension of Plasmopara viticola. The grapevines were then initially placed in a water-vapor-saturated chamber at 24° C. for 48 hours and then in a greenhouse at 20-30° C. for 5 days. After this period of time, the plants were again placed in a humid chamber for 16 hours to accelerate sporangiophore eruption. The extent of the development of the disease on the undersides of the leaves was then determined visually.
The visually determined percentages of infected leaf areas were converted into efficacies in % of the untreated control:
The efficacy (E) is calculated as follows using Abbot's formula: E=(1−α/β)·100 α corresponds to the fungicidal infection of the treated plants in % and β corresponds to the fungicidal infection of the untreated (control) plants in % An efficacy of 0 means that the infection level of the treated plants corresponds to that of the untreated control plants; an efficacy of 100 means that the treated plants were not infected.
The expected efficacies of mixtures of active compounds were determined using Colby's formula (Colby, S. R. “Calculating synergistic and antagonistic responses of herbicide combinations”, Weeds, 15, 20-22, 1967) and compared with the observed efficacies.
Colby's formula: E=x+y−x·y/100
E expected efficacy, expressed in % of the untreated control, when using the mixture of the active compounds A and B at the concentrations a and b x efficacy, expressed in % of the untreated control, when using the active compound A at the concentration a y efficacy, expressed in % of the untreated control, when using the active compound B at the concentration b

SMILES	Efficacy in % of the untreated control (1 ppm in the spray liquor) [%]	Efficacy in % of the untreated control (5 ppm in the spray liquor) [%]	Efficacy in % of the untreated control (10 ppm in the spray liquor) [%]	Efficacy in % of the untreated control (2.5 ppm in the spray liquor) [%]
CC1CCN(c2c(-c3c(F)cc(F)cc3F)c(Cl)nc3ncnn23)CC1 [I, 5-chloro-7-(4-methylpiperidin-1-yl)-6-(2,4,6-trifluorophenyl)-[1,2,4]tri-azolo[1,5-a]pyrimidine]	0	0	6	
O=C(NCc1ncc(C(F)(F)F)cc1Cl)c1c(Cl)cccc1Cl [II, 2,6-dichloro-N-(3-chloro-5-trifluoromethylpyridin-2-ylmethyl)-benzamide]		76		65
